Reference: ChEMBL document CHEMBL4765274, “The development of advanced structural framework as multi-target-directed ligands for the treatment of Alzheimer's disease” (Eur J Med Chem, 2020)
Activity calls are given as the source filed them. The rule behind the calls is not given here.

How the values were obtained:
[1] = test system: Mus musculus; experiment: Antialzheimer activity in scopolamine-induced Kunming mouse model of memory impairment assessed as latency time at 20 mg/kg , po by step-down passive avoidance test (reference value: 125.65 sec); type: functional
[2] = Toxicity in 2 dpf zebra fish assessed as dark brown liver at 25 ug/ml after 3 days relative to control; set-up: species or system Danio rerio; settings: zebrafish, 72 h, at 25 µg/mL, time 3 day
[3] = Toxicity in 3 dpf zebra fish assessed as mortality at 100 ug/ml (reference value: 0%); set-up: species or system Danio rerio; settings: zebrafish, at 100 µg/mL, read-out: Activity
[4] = biological target: Cholinesterase (Equus caballus, UniProt P81908); experiment: Inhibition of equine serum BChE by Ellman's method; type: cell-free
[5] = Effective permeability of compound at 100 ug/m by PAMPA-BBB assay; type: ADME; settings: read-out: Peff
[6] = test system: SH-SY5Y; experiment: Cytotoxicity against human SH-SY5Y cells assessed as cell viability up to 100 uM after 48 hrs by MTT assay relative to control; type: cell-based
[7] = Toxicity in 2 dpf zebra fish assessed as pericardial edema at 25 ug/ml after 3 days relative to control; set-up: species or system Danio rerio; settings: zebrafish, 72 h, at 25 µg/mL, time 3 day
[8] = test system: SH-SY5Y; experiment: Neuroprotective activity against amyloid beta (1 to 42 residues)-induced cytotoxicity in human SH-SY5Y cells assessed as increase in cell viability at 1 to 10 uM incubated for 48 hrs by MTT assay; type: functional, cell-based; settings: dose 1-10 µM
[9] = test system: PC-12; experiment: Cytotoxicity against rat PC-12 cells assessed as reduction in cell viability up to 100 uM after 48 hrs by MTT assay; type: cell-based; settings: pc-12, 48 h
[10] = biological target: T1, Cholinesterase (Homo sapiens, UniProt P06276); experiment: Inhibition of human serum BChE by Ellman's method; type: cell-free
[11] = test system: PC-12; experiment: Neuroprotective activity against H2O2-induced cytotoxicity in rat PC-12 cells assessed as increase in cell viability preincubated for 2 hrs followed by H2O2 addition and measured after 24 hrs by MTT assay; type: functional, cell-based; settings: dose 1-10 µM, time 26.0 hrs
[12] = Toxicity in 2 dpf zebra fish assessed as yolk sac absorption delay at 25 ug/ml after 3 days relative to control; set-up: species or system Danio rerio; settings: zebrafish, 72 h, at 25 µg/mL, time 3 day
[13] = Effect on GFP expression in mouse HT-22 cells expressing pEGFP-N1 at 10 uM after 24 hrs by fluorescence microscopic method; type: ADME, cell-based; settings: ht-22, 24 h
[14] = test system: HT-22; experiment: Activation of ubiquitin-proteasome system in mouse HT-22 cells expressing YFP-CLI assessed as reduction in GFP level at 10 uM after 24 hrs by flow cytometric analysis; type: cell-based; settings: filed as activator
[15] = Drug metabolism in mouse blood assessed as metabolite formation by UPLC-TOF analysis; type: ADME, tissue-based
[16] = Metal chelating activity assessed as Fe2+-compound complex formation in water at 37.5 uM by UV-Visible spectra analysis
[17] = Disaggregation of Cu2+ induced amyloid beta (1 to 42 residues) (unknown origin) aggregation at 25 uM by thioflavin-T fluorescence method relative to control
[18] = Toxicity in 2 dpf zebra fish assessed as short or misshapen jaw at 25 ug/ml after 3 days relative to control; set-up: species or system Danio rerio; settings: zebrafish, 72 h, at 25 µg/mL, time 3 day
[19] = Toxicity in 2 dpf zebra fish assessed as change in body shape at 25 ug/ml after 3 days relative to control; set-up: species or system Danio rerio; settings: zebrafish, 72 h, at 25 µg/mL, time 3 day
[20] = Toxicity in 2 dpf zebra fish assessed as yolk sac absorption delay at 8.33 ug/ml after 3 days relative to control; set-up: species or system Danio rerio; settings: zebrafish, 72 h, at 8.33 µg/mL, time 3 day
[21] = biological target: T1, Cholinesterase; experiment: Reversible inhibition of human BChE assessed as residual activity at 0.1 times of IC50 concentration after 240 mins relative to control
[22] = Toxicity in 2 dpf zebra fish assessed as yolk sac absorption delay at 2.78 ug/ml after 3 days relative to control; set-up: species or system Danio rerio; settings: zebrafish, 72 h, at 2.78 µg/mL, time 3 day
[23] = Toxicity in 2 dpf zebra fish assessed as absent blood flow at 25 ug/ml after 3 days relative to control; type: tissue-based, Danio rerio; settings: zebrafish, 72 h, at 25 µg/mL, time 3 day
[24] = Toxicity in 2 dpf zebra fish assessed as edema in kidney at 25 ug/ml after 3 days relative to control; set-up: species or system Danio rerio; settings: zebrafish, 72 h, at 25 µg/mL, time 3 day
[25] = test system: HT-22; experiment: Cytotoxicity against mouse HT-22 cells assessed as reduction in cell viability after 24 hrs by MTT assay; type: cell-based; settings: HT-22, 24 h
[26] = Toxicity in 2 dpf zebra fish assessed as absent blood flow at 8.33 ug/ml after 3 days relative to control; type: tissue-based, Danio rerio; settings: zebrafish, 72 h, at 8.33 µg/mL, time 3 day
[27] = Toxicity in 3 dpf zebra fish assessed as mortality at 0.78 ug/ml (reference value: 0%); set-up: species or system Danio rerio; settings: zebrafish, at 0.78 µg/mL, read-out: Activity
[28] = test system: Mus musculus; experiment: Antialzheimer activity in scopolamine-induced Kunming mouse model of memory impairment assessed as GC bases ratio (QC data) in brain hippocampus at 5 mg/kg , po by illumina sequencing method (reference value: 53.64%); type: functional

T1 sequence (P06276 whole entry): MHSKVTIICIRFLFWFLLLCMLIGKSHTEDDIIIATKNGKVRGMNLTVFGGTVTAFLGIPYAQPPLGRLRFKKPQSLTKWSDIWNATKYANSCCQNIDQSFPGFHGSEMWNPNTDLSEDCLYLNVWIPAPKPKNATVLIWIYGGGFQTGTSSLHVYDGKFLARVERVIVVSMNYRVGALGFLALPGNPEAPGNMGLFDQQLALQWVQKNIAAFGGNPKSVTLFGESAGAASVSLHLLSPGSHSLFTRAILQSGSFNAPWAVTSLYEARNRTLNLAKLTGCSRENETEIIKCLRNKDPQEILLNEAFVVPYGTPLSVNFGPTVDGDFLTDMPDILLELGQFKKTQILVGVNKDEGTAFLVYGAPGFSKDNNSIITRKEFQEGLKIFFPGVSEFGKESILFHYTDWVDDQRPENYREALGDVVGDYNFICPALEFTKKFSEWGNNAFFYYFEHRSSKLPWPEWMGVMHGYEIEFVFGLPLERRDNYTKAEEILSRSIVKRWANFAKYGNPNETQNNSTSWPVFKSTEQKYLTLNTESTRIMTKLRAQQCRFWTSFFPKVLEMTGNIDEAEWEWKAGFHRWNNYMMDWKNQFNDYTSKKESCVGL
Chain of Cholinesterase (Equus caballus, UniProt P81908) (P81908 whole entry): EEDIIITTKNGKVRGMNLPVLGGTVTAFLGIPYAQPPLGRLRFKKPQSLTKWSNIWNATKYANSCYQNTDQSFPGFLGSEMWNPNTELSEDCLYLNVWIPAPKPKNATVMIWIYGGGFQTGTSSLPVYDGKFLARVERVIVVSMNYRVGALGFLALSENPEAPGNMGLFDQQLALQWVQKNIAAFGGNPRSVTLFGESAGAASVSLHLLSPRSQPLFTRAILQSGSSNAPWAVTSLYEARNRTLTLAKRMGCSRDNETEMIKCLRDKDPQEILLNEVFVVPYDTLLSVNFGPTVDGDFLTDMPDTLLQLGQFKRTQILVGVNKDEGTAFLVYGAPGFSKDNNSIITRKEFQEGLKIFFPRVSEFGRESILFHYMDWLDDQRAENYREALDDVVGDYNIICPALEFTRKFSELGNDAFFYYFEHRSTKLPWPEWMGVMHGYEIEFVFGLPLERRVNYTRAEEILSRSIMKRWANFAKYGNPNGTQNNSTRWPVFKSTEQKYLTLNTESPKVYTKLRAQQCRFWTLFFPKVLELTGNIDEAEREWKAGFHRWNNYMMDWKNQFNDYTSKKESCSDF

CCN(CCCCOc1ccc(-c2cc(=O)c3c(O)cc(OCCCCN(CC)Cc4ccccc4)cc3o2)cc1)Cc1ccccc1
Time [1]: 245.98 s
Activity [2]: 100%
mortality at 100 ug/ml [3]: 100%
IC50 [4]: 9.6 µM
Papp at 100 ug/m [5]: 1.68 ×10⁻⁶ cm/s
Activity [6]: Non-Toxic
Activity [7]: 60%
Activity [8]: Active
Activity [9]: Non-Toxic
IC50 [10]: 15.3 µM
Activity [11]: Dose-dependent effect
Activity [12]: 100%
Activity [13]: Non-Toxic
Activity [14]: Active
Drug metabolism [15]: Metabolite_Detected
Activity [16]: inactive
Activity [17]: 81.3%
Activity [18]: 56.7%
Activity [19]: 46.7%
Activity [20]: 73.3%
Activity [21]: 97.6%
Activity [22]: 26.7%
Activity [23]: 53.3%
Activity [24]: 66.7%
IC50 [25]: 39.7 µM
Activity [26]: 33.3%
mortality at 0.78 ug/ml [27]: 0%
Activity [28]: 59.05%
